US9695155B2, “Herbicidal substituted pyrimidinyloxy benzene compounds” (E. I. DU PONT DE NEMOURS AND COMPANY, priority 2013, dated 2017)

Tests used:
barnyardgrass [1] = assay: Test A preemergence; format: in vivo, Echinochloa crus-galli; settings: for Barnyardgrass plant response rating (0 to 100 scale, 0 is no effect, 100 is complete control): 125 g ai/ha; for Barnyardgrass plant response rating: 500 g ai/ha, 0 to 100 scale where 0 is no effect and 100 is complete control
Procedure, shortened: (§1)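 Pre- and postemergence greenhouse screen. Soil: loam + sand. Spray carrier: solvent mixture, non-phytotoxic, with surfactant. Post timing at 1–2 leaves, height 2–10 cm. Readout: visual injury on a 0–100 scale roughly 10 days after application, untreated plants as reference.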

large (Lg) crabgrass [2] = assay: Test A preemergence; format: in vivo, Digitaria sanguinalis; settings: for Crabgrass, Large plant response rating (0 to 100 scale): 125 g ai/ha; for Crabgrass, Large plant response rating: 500 g ai/ha, 0 to 100 scale where 0 is no effect and 100 is complete control
Procedure, shortened: as §1

giant foxtail [3] = assay: Test A preemergence; format: in vivo, Setaria faberii; settings: for Foxtail, Giant plant response rating (0 to 100 scale): 125 g ai/ha; for Foxtail, Giant plant response rating: 500 g ai/ha, 0 to 100 scale where 0 is no effect and 100 is complete control
Procedure, shortened: as §1

morningglory [4] = assay: Test A preemergence; format: in vivo, Ipomoea spp.; settings: for Morningglory plant response rating (0 to 100 scale): 125 g ai/ha; for Morningglory plant response rating: 500 g ai/ha, 0 to 100 scale where 0 is no effect and 100 is complete control
Procedure, shortened: as §1

pigweed [5] = assay: Test A preemergence; format: in vivo, Amaranthus retroflexus; settings: for Pigweed plant response rating (0 to 100 scale): 125 g ai/ha; for Pigweed plant response rating: 500 g ai/ha, 0 to 100 scale where 0 is no effect and 100 is complete control
Procedure, shortened: as §1

velvetleaf [6] = assay: Test A preemergence; format: in vivo, Abutilon theophrasti; settings: for Velvetleaf plant response rating (0 to 100 scale): 125 g ai/ha; for Velvetleaf plant response rating: 500 g ai/ha, 0 to 100 scale where 0 is no effect and 100 is complete control
Procedure, shortened: as §1

wheat [7] = assay: Test A preemergence; format: in vivo, Triticum aestivum; settings: for Wheat plant response rating (0 to 100 scale): 125 g ai/ha; for Wheat plant response rating: 500 g ai/ha, 0 to 100 scale where 0 is no effect and 100 is complete control
Procedure, shortened: as §1

corn [8] = assay: Test A preemergence; format: in vivo, Zea mays; settings: for Corn plant response rating (0 to 100 scale): 125 g ai/ha; for Corn plant response rating: 500 g ai/ha, 0 to 100 scale where 0 is no effect and 100 is complete control
Procedure, shortened: as §1

barnyardgrass [9] = assay: Test A postemergence; format: in vivo, Echinochloa crus-galli; settings: 0 to 100 scale where 0 is no effect and 100 is complete control; for Barnyardgrass plant response rating: 125 g ai/ha; for Plant response rating, Barnyardgrass: 500 g ai/ha
Procedure, shortened: as §1

large (Lg) crabgrass [10] = assay: Test A postemergence; format: in vivo, Digitaria sanguinalis; settings: 0 to 100 scale where 0 is no effect and 100 is complete control; for Crabgrass, Large plant response rating: 125 g ai/ha; for Plant response rating, Crabgrass, Large: 500 g ai/ha
Procedure, shortened: as §1

giant foxtail [11] = assay: Test A postemergence; format: in vivo, Setaria faberii; settings: 0 to 100 scale where 0 is no effect and 100 is complete control; for Foxtail, Giant plant response rating: 125 g ai/ha; for Plant response rating, Foxtail, Giant: 500 g ai/ha
Procedure, shortened: as §1

morningglory [12] = assay: Test A postemergence; format: in vivo, Ipomoea spp.; settings: 0 to 100 scale where 0 is no effect and 100 is complete control; for Morningglory plant response rating: 125 g ai/ha; for Plant response rating, Morningglory: 500 g ai/ha
Procedure, shortened: as §1

pigweed [13] = assay: Test A postemergence; format: in vivo, Amaranthus retroflexus; settings: 0 to 100 scale where 0 is no effect and 100 is complete control; for Pigweed plant response rating: 125 g ai/ha; for Plant response rating, Pigweed: 500 g ai/ha
Procedure, shortened: as §1

velvetleaf [14] = assay: Test A postemergence; format: in vivo, Abutilon theophrasti; settings: 0 to 100 scale where 0 is no effect and 100 is complete control; for Velvetleaf plant response rating: 125 g ai/ha; for Plant response rating, Velvetleaf: 500 g ai/ha
Procedure, shortened: as §1

wheat [15] = assay: Test A postemergence; format: in vivo, Triticum aestivum; settings: 0 to 100 scale where 0 is no effect and 100 is complete control; for Wheat plant response rating: 125 g ai/ha; for Plant response rating, Wheat: 500 g ai/ha
Procedure, shortened: as §1

corn [16] = assay: Test A postemergence; format: in vivo, Zea mays; settings: 0 to 100 scale where 0 is no effect and 100 is complete control; for Corn plant response rating: 125 g ai/ha; for Plant response rating, Corn: 500 g ai/ha
Procedure, shortened: as §1

rice [17] = assay: Test B flooded paddy test; format: in vivo, Oryza sativa; settings: Flood, 250 g ai/ha; 0 to 100 scale where 0 is no effect and 100 is complete control
Procedure, shortened: (§2)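 Plants at 2-leaf stage; pots flooded to 3 cm above soil and compound applied directly into paddy water, depth held throughout. After 13 to 15 days in greenhouse, visual rating versus controls on 0 (no effect) to 100 (complete control) scale.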

sedge, umbrella [18] = assay: Test B flooded paddy test; format: in vivo, Cyperus difformis; settings: Flood, 250 g ai/ha; 0 to 100 scale where 0 is no effect and 100 is complete control
Procedure, shortened: as §2

Heteranthera limosa = assay: Test B flooded paddy test; format: in vivo; settings: Flood, 250 g ai/ha; 0 to 100 scale where 0 is no effect and 100 is complete control
Procedure, shortened: as §2

barnyardgrass [19] = assay: Test B flooded paddy test; format: in vivo, Echinochloa crus-galli; settings: Flood, 250 g ai/ha; 0 to 100 scale where 0 is no effect and 100 is complete control
Procedure, shortened: as §2

rice [20] = assay: Test C flooded paddy test; format: in vivo, Oryza sativa; settings: Flood, scale 0 to 100 (0 no effect, 100 complete control), 13 to 15 days
Procedure, shortened: (§3)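 Pots were flooded to 3 cm above the soil surface at treatment, compound applied directly to the paddy water, and that depth held throughout. Plants were kept in a greenhouse for 13 to 15 days, then visually rated against untreated controls.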

sedge, umbrella [21] = assay: Test C flooded paddy test; format: in vivo, Cyperus difformis; settings: Flood, scale 0 to 100 (0 no effect, 100 complete control), 13 to 15 days
Procedure, shortened: as §3

ducksalad = assay: Test C flooded paddy test; format: in vivo, Heteranthera limosa; settings: Flood, scale 0 to 100 (0 no effect, 100 complete control), 13 to 15 days
Procedure, shortened: as §3

barnyardgrass [22] = assay: Test C flooded paddy test; format: in vivo, Echinochloa crus-galli; settings: Flood, scale 0 to 100 (0 no effect, 100 complete control), 13 to 15 days
Procedure, shortened: as §3

CON=Cc1cccc(Oc2ncc(Cl)cn2)c1-n1cc(Br)cn1 [Compound 203]
Barnyardgrass plant response rating (0 to 100 scale, 0 is no effect, 100 is complete control) (barnyardgrass [1]): 10 | Barnyardgrass plant response rating (barnyardgrass [1]): 40 | Crabgrass, Large plant response rating (0 to 100 scale) (large (Lg) crabgrass [2]): 100 | Crabgrass, Large plant response rating (large (Lg) crabgrass [2]): 100 | Foxtail, Giant plant response rating (0 to 100 scale) (giant foxtail [3]): 90 | Foxtail, Giant plant response rating (giant foxtail [3]): 100 | Morningglory plant response rating (0 to 100 scale) (morningglory [4]): 0 | Morningglory plant response rating (morningglory [4]): 10 | Pigweed plant response rating (0 to 100 scale) (pigweed [5]): 90 | Pigweed plant response rating (pigweed [5]): 100 | Velvetleaf plant response rating (0 to 100 scale) (velvetleaf [6]): 30 | Velvetleaf plant response rating (velvetleaf [6]): 40 | Wheat plant response rating (0 to 100 scale) (wheat [7]): 0 | Wheat plant response rating (wheat [7]): 0 | Corn plant response rating (0 to 100 scale) (corn [8]): 0 | Corn plant response rating (corn [8]): 0 | Barnyardgrass plant response rating (barnyardgrass [9]): 40 | Plant response rating, Barnyardgrass (barnyardgrass [9]): 70 | Crabgrass, Large plant response rating (large (Lg) crabgrass [10]): 60 | Plant response rating, Crabgrass, Large (large (Lg) crabgrass [10]): 80 | Foxtail, Giant plant response rating (giant foxtail [11]): 70 | Plant response rating, Foxtail, Giant (giant foxtail [11]): 80 | Morningglory plant response rating (morningglory [12]): 20 | Plant response rating, Morningglory (morningglory [12]): 70 | Pigweed plant response rating (pigweed [13]): 70 | Plant response rating, Pigweed (pigweed [13]): 90 | Velvetleaf plant response rating (velvetleaf [14]): 80 | Plant response rating, Velvetleaf (velvetleaf [14]): 90 | Wheat plant response rating (wheat [15]): 0 | Plant response rating, Wheat (wheat [15]): 20 | Corn plant response rating (corn [16]): 30 | Plant response rating, Corn (corn [16]): 50 | Plant response rating, Rice (rice [17]): 10 | Plant response rating, Sedge, Umbrella (sedge, umbrella [18]): 90 | Plant response rating, Ducksalad (Heteranthera limosa): 90 | Plant response rating, Barnyardgrass (barnyardgrass [19]): 0 | Plant response rating, Rice (rice [20]; 31 g ai/ha): 0 | Plant response rating, Rice (rice [20]; 62 g ai/ha): 20 | Plant response rating, Rice (rice [20]; 125 g ai/ha): 20 | Plant response rating, Sedge, Umbrella (sedge, umbrella [21]; 31 g ai/ha): 50 | Plant response rating, Sedge, Umbrella (sedge, umbrella [21]; 62 g ai/ha): 75 | Plant response rating, Sedge, Umbrella (sedge, umbrella [21]; 125 g ai/ha): 85 | Plant response rating, Ducksalad (ducksalad; 31 g ai/ha): 0 | Plant response rating, Ducksalad (ducksalad; 62 g ai/ha): 50 | Plant response rating, Ducksalad (ducksalad; 125 g ai/ha): 70 | Plant response rating, Barnyardgrass (barnyardgrass [22]; 31 g ai/ha): 40 | Plant response rating, Barnyardgrass (barnyardgrass [22]; 62 g ai/ha): 50 | Plant response rating, Barnyardgrass (barnyardgrass [22]; 125 g ai/ha): 50

FC(F)c1cccc(Oc2ncc(Br)cn2)c1-n1cc(Br)cn1 [Compound 231]
Barnyardgrass plant response rating (0 to 100 scale, 0 is no effect, 100 is complete control) (barnyardgrass [1]): 20 | Barnyardgrass plant response rating (barnyardgrass [1]): 100 | Crabgrass, Large plant response rating (0 to 100 scale) (large (Lg) crabgrass [2]): 90 | Crabgrass, Large plant response rating (large (Lg) crabgrass [2]): 100 | Foxtail, Giant plant response rating (0 to 100 scale) (giant foxtail [3]): 90 | Foxtail, Giant plant response rating (giant foxtail [3]): 100 | Morningglory plant response rating (0 to 100 scale) (morningglory [4]): 0 | Morningglory plant response rating (morningglory [4]): 30 | Pigweed plant response rating (0 to 100 scale) (pigweed [5]): 90 | Pigweed plant response rating (pigweed [5]): 100 | Velvetleaf plant response rating (0 to 100 scale) (velvetleaf [6]): 0 | Velvetleaf plant response rating (velvetleaf [6]): 100 | Wheat plant response rating (0 to 100 scale) (wheat [7]): 0 | Wheat plant response rating (wheat [7]): 20 | Corn plant response rating (0 to 100 scale) (corn [8]): 0 | Corn plant response rating (corn [8]): 20 | Barnyardgrass plant response rating (barnyardgrass [9]): 40 | Plant response rating, Barnyardgrass (barnyardgrass [9]): 90 | Crabgrass, Large plant response rating (large (Lg) crabgrass [10]): 70 | Plant response rating, Crabgrass, Large (large (Lg) crabgrass [10]): 90 | Foxtail, Giant plant response rating (giant foxtail [11]): 70 | Plant response rating, Foxtail, Giant (giant foxtail [11]): 90 | Morningglory plant response rating (morningglory [12]): 30 | Plant response rating, Morningglory (morningglory [12]): 90 | Pigweed plant response rating (pigweed [13]): 100 | Plant response rating, Pigweed (pigweed [13]): 100 | Velvetleaf plant response rating (velvetleaf [14]): 100 | Plant response rating, Velvetleaf (velvetleaf [14]): 100 | Wheat plant response rating (wheat [15]): 20 | Plant response rating, Wheat (wheat [15]): 50 | Corn plant response rating (corn [16]): 20 | Plant response rating, Corn (corn [16]): 90 | Plant response rating, Rice (rice [17]): 30 | Plant response rating, Sedge, Umbrella (sedge, umbrella [18]): 80 | Plant response rating, Ducksalad (Heteranthera limosa): 80 | Plant response rating, Barnyardgrass (barnyardgrass [19]): 20 | Plant response rating, Rice (rice [20]; 31 g ai/ha): 0 | Plant response rating, Rice (rice [20]; 62 g ai/ha): 0 | Plant response rating, Rice (rice [20]; 125 g ai/ha): 0 | Plant response rating, Rice (rice [20]; 250 g ai/ha): 0 | Plant response rating, Sedge, Umbrella (sedge, umbrella [21]; 31 g ai/ha): 0 | Plant response rating, Sedge, Umbrella (sedge, umbrella [21]; 62 g ai/ha): 50 | Plant response rating, Sedge, Umbrella (sedge, umbrella [21]; 125 g ai/ha): 70 | Plant response rating, Sedge, Umbrella (sedge, umbrella [21]; 250 g ai/ha): 80 | Plant response rating, Ducksalad (ducksalad; 31 g ai/ha): 0 | Plant response rating, Ducksalad (ducksalad; 62 g ai/ha): 30 | Plant response rating, Ducksalad (ducksalad; 125 g ai/ha): 70 | Plant response rating, Ducksalad (ducksalad; 250 g ai/ha): 75 | Plant response rating, Barnyardgrass (barnyardgrass [22]; 31 g ai/ha): 0 | Plant response rating, Barnyardgrass (barnyardgrass [22]; 62 g ai/ha): 0 | Plant response rating, Barnyardgrass (barnyardgrass [22]; 125 g ai/ha): 0 | Plant response rating, Barnyardgrass (barnyardgrass [22]; 250 g ai/ha): 0
